# Key:
# [1] = molecular target: T1, SYK (Homo sapiens, UniProt P43405); assay: Kinase inhibition test, Z'-LYTE; assay type: biochemical; conditions: read-out: 50% activity inhibition value (IC50), SYK
# T1 construct: purchased Thermo Fisher Scientific
# Procedure: Activity measurement was conducted using LanthaScreen test method (wild type and mutation type FLT3) or Z′-LYTE test method (SYK) developed by Thermo Fisher Scientific. LanthaScreen test method is a method of measuring protein activity by measuring fluorescence resonance energy transfer (FRET) signal under the existence of europium-conjugated antibody on the basis of the binding of Alexa Fluor 647-labelled, ATP-competitive kinase inhibitor (kinase tracer-236) to kinase. Z′-LYTE test method is a method using an enzyme which can cut dephosphorylated substrate, and this method measures the activity of kinase protein by measuring two fluorescent FRET signals attached to each end of peptide substrate. The two experiments were all conducted in 384 well plates under the conditions of 50 mM HEPES pH 7.5, 0.01% BRIJ-35, 10 mM MgCl2, 1 mM EGTA, and 1% DMSO.
# [2] = system: MOLM-14 FLT3-ITD/F691L cell strain; assay: Mouse model hypodermically implanted with MOLM-14 FLT3-ITD/F691L cell strain; assay type: in vivo; conditions: nude mice, MOLM-14 FLT3-ITD/F691L subcutaneous, 30 mg/kg/day oral once daily
# Procedure: MOLM-14 FLT3-ITD/F691L cell strain was subcutaneously injected into a nude mouse at 3×10^^6 cell/0.15 mL/mouse and the mouse was left to grow.
# The control group was administered for 13 days and the drug administration groups were administered for 18 days with each pertinent drug.
# The tumor volume (mm^3) of the surviving mice in each group was plotted on the y-axis, whereas the number of days of medication was plotted on the x-axis. In order to evaluate the effects of the administration of drugs, the results of complete response (CR) in which tumor had completely disappeared were checked. […] (*p<0.05, **p<0.01, ***p<0.001, and ****p<0.0001 Sidk's test was conducted after two-way analysis of variance)
compound,measurement,setting,value
"Cc1ccc2c(-c3nc(Nc4cc(CN5C[C@@H](C)N[C@@H](C)C5)cc(C5CC5)c4)ncc3Cl)c[nH]c2c1 [Compound A, 5-chloro-N-(3-cyclopropyl-5-(((3R,5S)-3,5-dimethylpiperazine-1-yl)methyl)phenyl)-4-(6-methyl-1H-indol-3-yl)pyrimidine-2-amin]",IC50,[1],2.9 nM
same,"complete response (CR, tumor completely disappeared), day of administration",[2],12 days
same,volume of tumor compared with Gilteritinib administration group,"[2]; 18 days, FIG. 1",reduced more significantly
